Measured values published in US20240358693A1, “METHODS OF TREATING PAIN” (Aisa Pharma, Inc., priority 2023, published 2024).

What was measured:
participants with SSc-RP [1] = test: Adverse events and serious adverse events (safety, tolerability); format: in vivo
Text: An AE is any event, side effect, or other untoward medical occurrence that occurs in conjunction with the use of a medicinal product in humans, whether or not considered to have a causal relationship to this treatment.
Severity of AEs will be graded by the Investigator as one of: • Mild (Grade 1): A type of AE that is usually transient and may require only minimal treatment or therapeutic intervention.
An SAE is an AE occurring during any study phase (i.e., baseline, treatment, washout, or follow-up), and at any dose of the study drug (active or placebo), that fulfills one or more of the following: • Results in death • It is immediately life-threatening • It requires in participant hospitalization or prolongation of existing hospitalization • It results in persistent or significant disability or incapacity • Results in a congenital abnormality or birth defect • It is an important medical event that may jeopardize the participant or may require medical intervention to prevent one of the outcomes listed above.
Treatment-emergent AEs (TEAEs) are defined as AEs that occur or worsen after the dose of study drug. If the timing of the start of an AE could not be determined unambiguously from the start or end dates provided, it will be assumed to be a TEAE. An AE is considered related if the relationship to either of the study drug has been indicated as possibly or probably or definite related by the investigator. An AE leading to study withdrawal is defined as an AE that cause a subject early terminated from the study. AEs will be identified as emerging in the following parts: • TEAEs for Part A will be those that started during Part A (i.e., from the first dose in Part A to end of follow up of Part A). • TEAEs for Part B will be those that started during Part B (i.e., from the first dose in Part B to end of follow-up of Part B).
Adverse events were coded using the most current version of the MedDRA® Version 22.0 or higher. The analysis of AEs was based on the concept of treatment emergent AEs. Treatment emergent AEs were tabulated by treatment group and included the number of participants for whom the event occurred, the severity, and relationship to study drug. Treatment emergent AEs (TEAEs) leading to discontinuation and SAEs with onset after the start of study drug were also summarized. All AEs and SAEs (including those with onset or worsening before the start of study drug) through the end of the study were listed.

participants with SSc-RP [2] = test: Average daily Raynaud's Condition Score (RCS); format: in vivo, human; design: key to Average Daily RCS, Mean / Average Daily RCS, Median / Average Daily RCS, Change from Baseline, Mean / Average Daily RCS, Change from Baseline, Median / Average daily RCS, Baseline, Mean / Average daily RCS, Baseline, Median / Mean RCS at baseline: RCS rated on a 0-10 cm VAS scale; details: for Average Daily RCS, Change from Baseline, Mean / Average Daily RCS, Change from Baseline, Median / Average Daily RCS, Percent Change from Baseline, Mean / Average Daily RCS, Percent Change from Baseline, Median / Average Daily RCS, Mean / Average Daily RCS, Median / Average Daily RCS (dosing period), Mean / Average Daily RCS (dosing period), Median / Average daily RCS, Baseline, Mean / Average daily RCS, Baseline, Median: ITT Part A; for Average Daily RCS, Mean / Average Daily RCS, Median: dosing period
Text: The RCS is based on how much difficulty participants had with Raynaud's today, how many attacks the participant had, and how long they lasted. In addition participants were and will be asked to consider how much pain, numbness, or other symptoms the Raynaud's caused in fingers (including painful sores), and how much the Raynaud's along affected the use of hand today (VAS 0-10 cm scale).
The absolute change in average daily RCS from baseline to the end of each dosing period was and will be a secondary outcome variable. The sponsor-developed participant-informed diary has been and will be used to record data. The average daily RCS is defined as the total RCS divided by the number of days with available diary data of each dosing period. Total RCS during screening period divided by the number of days with available data will be used as baseline for the analysis of all periods. If there are multiple daily RCS scores, the latest daily RCS will be used. The variable will be calculated similar to frequency data as before.

[3] = excluding outliers, dose Cilnidipine 10 mg, Tadalafil 5 mg, or 10 mg + 5 mg
[4] = excluding outliers, dose Cilnidipine 20 mg, or 20 mg + Tadalafil 5 mg
[5] = excluding outliers, pooled 10 mg and 20 mg Cilnidipine arms (combination: + Tadalafil 5 mg)
[6] = excluding outliers, pooled Cilnidipine 10 mg and Cilnidipine 10 mg + Tadalafil 5 mg
[7] = excluding outliers, pooled Cilnidipine 20 mg and Cilnidipine 20 mg + Tadalafil 5 mg
[8] = Pooled Cilnidipine 10 mg and Cilnidipine 10 mg + Tadalafil 5 mg
[9] = Pooled Cilnidipine 20 mg and Cilnidipine 20 mg + Tadalafil 5 mg

## COCCOC(=O)C1=C(C)NC(C)=C(C(=O)OC/C=C/c2ccccc2)C1c1cccc([N+](=O)[O-])c1 (centres unmarked) [Cilnidipine, cilnidipine]
Participants with SSc-RP [1]; Cilnidipine 20 mg, HA-mild, n = 8
  Safety: number of AE: 1AE (HA-mild; 1
Participants with SSc-RP [1]; Cilnidipine 20 mg, n = 8
  Safety: withdrawals: 1AE (HA-mild; 1
Participants with SSc-RP [1]; Pooled Cilnidipine, in combo with T, n = 9
  Safety: number of AE: 1AE (in combo with T);
Participants with SSc-RP [1]; Pooled Cilnidipine, n = 9
  Safety: withdrawals: no withdrawals
Participants with SSc-RP [1]; all patients who received any dose of cilnidipine (n=17)
  incidence of Adverse Events / overall adverse event rate: 17%
Participants with SSc-RP [1]; cilnidipine 10 mg and 20 mg, alone or in combination with tadalafil
  tolerability: well tolerated
Participants with SSc-RP [1]; patients treated with cilnidipine
  severity grade of adverse events reported: only mild (Grade 1)
Participants with SSc-RP [1]; summary of data (Table S)
  Safety: grade of Adverse Events (AEs): Grade 1 Adverse
  Safety: treatment D/Cs (discontinuations): No treatment D/Cs
Participants with SSc-RP [2]; Cilnidipine 10 mg
  Average Daily RCS, Change from Baseline, Mean: −0.98
  Average Daily RCS, Change from Baseline, Median: −0.98
  Average Daily RCS, Percent Change from Baseline, Mean: −35.74%
  Average Daily RCS, Percent Change from Baseline, Median: −35.74%
  Average Daily RCS, Mean: 1.76
  Average Daily RCS, Median: 1.76
Participants with SSc-RP [2]; Cilnidipine 20 mg
  Average Daily RCS, Change from Baseline, Mean: −0.45
  Average Daily RCS, Change from Baseline, Median: −0.45
  Average Daily RCS, Percent Change from Baseline, Mean: −17.16%
  Average Daily RCS, Percent Change from Baseline, Median: −17.16%
  Average Daily RCS, Mean: 2.90
  Average Daily RCS, Median: 2.90
Participants with SSc-RP [2]; Cilnidipine (20 mg) (n = 3)
  Daily RCS Change: −28%
  Mean % reduction in RCS: 27.9%
  Mean RCS at baseline: 3.5
Participants with SSc-RP [2]; [3]
  Average Daily RCS (dosing period), Mean: 1.76
  Average Daily RCS (dosing period), Median: 1.76
  Average Daily RCS, Change from Baseline, Mean: −0.98
  Average Daily RCS, Change from Baseline, Median: −0.98
  Average Daily RCS, Percent Change from Baseline, Mean: −35.74%
  Average Daily RCS, Percent Change from Baseline, Median: −35.74%
  Average daily RCS, Baseline, Mean: 2.74
  Average daily RCS, Baseline, Median: 2.74
Participants with SSc-RP [2]; [4]
  Average Daily RCS (dosing period), Mean: 2.90
  Average Daily RCS (dosing period), Median: 2.90
  Average Daily RCS, Change from Baseline, Mean: −0.45
  Average Daily RCS, Change from Baseline, Median: −0.45
  Average Daily RCS, Percent Change from Baseline, Mean: −17.16%
  Average Daily RCS, Percent Change from Baseline, Median: −17.16%
  Average daily RCS, Baseline, Mean: 3.35
  Average daily RCS, Baseline, Median: 3.35
Participants with SSc-RP [2]; [5]
  Average Daily RCS (dosing period), Mean: 2.52
  Average Daily RCS (dosing period), Median: 1.76
  Average Daily RCS, Change from Baseline, Mean: −0.63
  Average Daily RCS, Change from Baseline, Median: −0.98
  Average Daily RCS, Percent Change from Baseline, Mean: −23.35%
  Average Daily RCS, Percent Change from Baseline, Median: −35.74%
  Average daily RCS, Baseline, Mean: 3.15
  Average daily RCS, Baseline, Median: 2.80
Participants with SSc-RP [2]; [6]
  Average Daily RCS (dosing period), Mean: 2.43
  Average Daily RCS (dosing period), Median: 1.76
  Average Daily RCS, Change from Baseline, Mean: −1.64
  Average Daily RCS, Change from Baseline, Median: −1.51
  Average Daily RCS, Percent Change from Baseline, Mean: −41.77%
  Average Daily RCS, Percent Change from Baseline, Median: −36.47%
  Average daily RCS, Baseline, Mean: 4.07
  Average daily RCS, Baseline, Median: 2.85
Participants with SSc-RP [2]; [7]
  Average Daily RCS (dosing period), Mean: 3.60
  Average Daily RCS (dosing period), Median: 3.82
  Average Daily RCS, Change from Baseline, Mean: −1.08
  Average Daily RCS, Change from Baseline, Median: −0.59
  Average Daily RCS, Percent Change from Baseline, Mean: −18.93%
  Average Daily RCS, Percent Change from Baseline, Median: −20.71%
  Average daily RCS, Baseline, Mean: 4.68
  Average daily RCS, Baseline, Median: 3.74
Participants with SSc-RP [2]; [8]
  Average Daily RCS, Change from Baseline, Mean: −1.64
  Average Daily RCS, Change from Baseline, Median: −1.51
  Average Daily RCS, Percent Change from Baseline, Mean: −41.77%
  Average Daily RCS, Percent Change from Baseline, Median: −36.47%
  Average Daily RCS, Mean: 2.43
  Average Daily RCS, Median: 1.76
Participants with SSc-RP [2]; [9]
  Average Daily RCS, Change from Baseline, Mean: −1.08
  Average Daily RCS, Change from Baseline, Median: −0.59
  Average Daily RCS, Percent Change from Baseline, Mean: −18.93%
  Average Daily RCS, Percent Change from Baseline, Median: −20.71%
  Average Daily RCS, Mean: 3.60
  Average Daily RCS, Median: 3.82
Participants with SSc-RP [2]; Pooled Cilnidipine (n = 7), this value n = 3
  Daily RCS Change: 12% (n = 3)
Participants with SSc-RP [2]; Pooled Cilnidipine
  Average Daily RCS, Change from Baseline, Mean: −0.63
  Average Daily RCS, Change from Baseline, Median: −0.98
  Average Daily RCS, Percent Change from Baseline, Mean: −23.35%
  Average Daily RCS, Percent Change from Baseline, Median: −35.74%
  Average Daily RCS, Mean: 2.52
  Average Daily RCS, Median: 1.76
